Source: US7022716B2, “Cyclic amine phenyl beta-3 adrenergic receptor agonists” (Wyeth, priority 2000, dated 2006)

These compounds were tested against T1, human β3 adrenergic receptor (Homo sapiens, UniProt P13945) (assay: cAMP (SPA) response in CHO cells transfected with human β3 adrenergic receptor). Details: maximal response relative to maximal response of isoproterenol at 10^-5 M.
T1 construct: Full length β3 AR clones (402 amino acids) containing the last 6 amino acids of hβ3-AR are prepared; expressed in transfected cells; host or cells: CHO (Chinese hamster ovary) cells
Assay type: cell-based
Parameters: key: fraction of maximal isoproterenol (10^-5 M) response
Protocol: Binding to the receptors was measured in Chinese Hamster ovary (CHO) cells that were transfected with adrenergic receptors.
The corresponding primer sequences are described in Mantzoros, C. […] The four fragments are ligated into a pUC 18 plasmid (Gibco-BRL) and sequenced.
CHO cells were grown in 24-well tissue culture plates in Dulbecco's Modified Eagle Media with 10% fetal bovine serum, MEM non-essential amino acids, Penicillin-Streptompycin and Geneticin. On the day of test procedure, growth medium was replaced with preincubation media (Dulbecco's Modified Eagle, Media) and incubated for 30 minutes at 37° C. […] Test compounds were tested over a concentration range of 10^−9 M to 10^−5 M for β3 cells and 10^−8 to 10^−4 M for β1 and β2 transfected cells. Isoproterenol (10^−5 M) was used as an internal standard for comparison of activity. Cells were incubated at 37° C. on a rocker for 30 min with the β3 cells and 15 min for β1 and β2 cells. Incubation was stopped with the addition of 0.2N HCl and neutralized with 2.5N NaOH. The plates, containing the cells and neutralized media, were stored at −20 degrees celsius until ready to test for cAMP using the SPA test kit (Amersham).
Data Analysis and Results: Data collected from the SPA test procedure were analyzed as percent of the maximal isoproterenol response at 10^−5 M. Activity curves were plotted using the SAS statistical and graphics software.

T1 sequence (P13945 whole entry): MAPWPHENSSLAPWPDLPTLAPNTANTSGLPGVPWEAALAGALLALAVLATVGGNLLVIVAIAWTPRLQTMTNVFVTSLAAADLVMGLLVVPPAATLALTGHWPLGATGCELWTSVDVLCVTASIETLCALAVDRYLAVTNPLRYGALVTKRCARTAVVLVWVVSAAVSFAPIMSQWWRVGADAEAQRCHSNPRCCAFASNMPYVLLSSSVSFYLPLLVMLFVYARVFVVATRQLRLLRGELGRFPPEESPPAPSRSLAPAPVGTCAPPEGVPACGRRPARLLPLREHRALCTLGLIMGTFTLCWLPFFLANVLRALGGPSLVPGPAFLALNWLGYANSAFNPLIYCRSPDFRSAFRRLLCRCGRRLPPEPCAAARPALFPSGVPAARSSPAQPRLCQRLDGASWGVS

Structure (SMILES)	IA(β3)
COc1ccc(S(=O)(=O)Nc2ccc(N3CCC(NC[C@H](O)c4ccccc4)CC3)cc2)cc1 [Example 261, N-[4-(4-{[(2R)-2-Hydroxy-2-phenylethyl]amino}-1-piperidinyl)phenyl]-4-methoxybenzenesulfonamide]	0.73
CC(=O)Nc1ccc(S(=O)(=O)Nc2ccc(N3CCC(NCC(O)c4ccc(O)c(NS(C)(=O)=O)c4)CC3)cc2)cc1 (stereo not shown) [Example 270, N-{4-[(4-{4-[(2-Hydroxy-2-{4-hydroxy-3-[(methylsulfonyl)amino]phenyl}ethyl)amino]-1-piperidinyl}anilino)sulfonyl]phenyl}acetamide]	1.09
CC(=O)Nc1ccc(S(=O)(=O)Nc2ccc(N3CCC(NC[C@H](O)c4ccc(O)c(NS(C)(=O)=O)c4)CC3)cc2)cc1 [Example 291, N-{4-[(4-{4-[((2R)-2-Hydroxy-2-{4-hydroxy-3-[(methylsulfonyl)amino]-phenyl}ethyl)amino]-1-piperidinyl}anilino)sulfonyl]phenyl}acetamide]	1.07
CC(=O)Nc1ccc(S(=O)(=O)Nc2ccc(N3CCC(NCC(O)c4cccc(O)c4)CC3)cc2)cc1 (stereo not shown) [Example 257, N-[4-(4-{4-[2-Hydroxy-2-(3-hydroxy-phenyl)-ethylamino]-piperidin-1-yl}-phenylsulfamoyl)-phenyl]-acetamide]	0.88
CC(=O)Nc1ccc(S(=O)(=O)Nc2ccc(N3CCC(NC[C@H](O)c4ccc(O)c(O)c4)CC3)cc2)cc1 [Example 263, N-(4-{[4-(4-{[(2R)-2-(3,4-Dihydroxyphenyl)-2-hydroxyethyl]amino}-1-piperidinyl)anilino]sulfonyl}phenyl)acetamide]	0.93
CCCCCCCCS(=O)(=O)Nc1ccc(N2CCC(NC[C@H](O)COc3cccc4[nH]c(=O)[nH]c34)CC2)cc1 [Example 298, N-{4-[4-({(2S)-2-Hydroxy-3-[(2-oxo-2,3-dihydro-1H-benzimidazol-4-yl)oxy]propyl}amino)-1-piperidinyl]phenyl}-1-octanesulfonamide]	0.78
COc1ccc(S(=O)(=O)Nc2ccc(N3CCC(NCC(O)c4ccccc4)CC3)cc2)cc1 (stereo not shown) [Example 255, N-{4-[4-(2-Hydroxy-2-phenyl-ethylamino)-piperidin-1-yl]-phenyl}-4-methoxy-benzenesulfonamide]	0.72
COc1ccc(S(=O)(=O)Nc2ccc(N3CCC(NCC(O)c4ccc(O)c(NS(C)(=O)=O)c4)CC3)cc2)cc1OC (stereo not shown) [Example 280, N-(4-{4-[(2-Hydroxy-2-{4-hydroxy-3-[(methylsulfonyl)amino]phenyl}ethyl)amino]-1-piperidinyl}phenyl)-3,4-dimethoxybenzenesulfonamide]	1.16
CC(=O)Nc1ccc(S(=O)(=O)Nc2ccc(N3CCC(NC[C@H](O)COc4cccc5[nH]c6ccccc6c45)CC3)cc2)cc1 [Example 282, N-(4-{[4-(4-{[(2S)-3-(9H-Carbazol-4-yloxy)-2-hydroxypropyl]amino}-1-piperidinyl)-anilino]sulfonyl}phenyl)acetamide]	0.63
CS(=O)(=O)Nc1cc(C(O)CNC2CCN(c3ccc(NS(=O)(=O)c4ccc(-c5ccccn5)s4)cc3)CC2)ccc1O (stereo not shown) [Example 294, N-(4-{4-[(2-Hydroxy-2-{4-hydroxy-3-[(methylsulfonyl)amino]phenyl}ethyl)amino]-1-piperidinyl}phenyl)-5-(2-pyridinyl)-2-thiophenesulfonamide]	1.07
CCCCS(=O)(=O)Nc1ccc(N2CCC(NC[C@H](O)COc3cccc4[nH]c(=O)[nH]c34)CC2)cc1 [Example 296, N-{4-[4-({(2S)-2-Hydroxy-3-[(2-oxo-2,3-dihydro-1H-benzimidazol-4-yl)oxy]propyl}amino)-1-piperidinyl]phenyl}-1-butanesulfonamide]	0.81
COc1ccc(S(=O)(=O)Nc2ccc(N3CCC(NC[C@H](O)c4ccc(O)c(O)c4)CC3)cc2)cc1 [Example 266, N-[4-(4-{[(2R)-2-(3,4-Dihydroxyphenyl)-2-hydroxyethyl]amino}-1-piperidinyl)phenyl]-4-methoxybenzenesulfonamide]	0.86
CCCCCCNC(=O)Nc1ccc(S(=O)(=O)Nc2ccc(N3CCC(NCC(O)c4ccc(C)nc4)CC3)cc2)cc1 (stereo not shown) [Example 271, 4-{[(Hexylamino)carbonyl]amino}-N-[4-(4-{[2-hydroxy-2-(6-methyl-3-pyridinyl)ethyl]amino}-1-piperidinyl)phenyl]benzenesulfonamide]	0.84
O=c1[nH]c2cccc(OC[C@@H](O)CNC3CCN(c4ccc(NS(=O)(=O)c5ccc(-n6nnn(CCCC7CCCC7)c6=O)cc5)cc4)CC3)c2[nH]1 [Example 277]	0.58
CC(=O)Nc1ccc(S(=O)(=O)Nc2ccccc2N2CCC(NC[C@H](O)c3ccc(O)c(O)c3)CC2)cc1 [Example 265, N-(4-{[2-(4-{[(2R)-2-(3,4-Dihydroxyphenyl)-2-hydroxyethyl]amino}-1-piperidinyl)-anilino]sulfonyl}phenyl)acetamide]	0.8

Continued, values first:

IA(β3)	Structure (SMILES)
1	CCOC(=O)c1ccc(S(=O)(=O)Nc2ccc(N3CCC(NC[C@H](O)c4ccc(O)c(NS(C)(=O)=O)c4)CC3)cc2)cc1 [Example 318, Ethyl4-[(4-{4-[((2R)-2-hydroxy-2-{4-hydroxy-3-[(methylsulfonyl)amino]phenyl}ethyl)-amino]-1-piperidinyl}anilino)sulfonyl]benzoate]
1.1	O=c1[nH]c2cccc(OC[C@@H](O)CNC3CCN(c4ccc(NS(=O)(=O)c5ccc(S(=O)(=O)c6ccc(C(F)(F)F)cn6)s5)cc4)CC3)c2[nH]1 [Example 299]
0.86	O=c1[nH]c2cccc(OC[C@@H](O)CNC3CCN(c4ccc(NS(=O)(=O)c5ccc(Cl)c(Cl)c5)cc4)CC3)c2[nH]1 [Example 327, 3,4-Dichloro-N-{4-[4-({(2S)-2-hydroxy-3-[(2-oxo-2,3-dihydro-1H-benzimidazol-4-yl)oxy]propyl}amino)-1-piperidinyl]phenyl}benzenesulfonamide]
0.96	COc1ccc(S(=O)(=O)Nc2ccc(N3CCC(NC[C@H](O)COc4ccc(O)c5c4CCC(=O)N5)CC3)cc2)cc1OC [Example 303, N-{4-[4-({(2S)-2-Hydroxy-3-[(8-hydroxy-2-oxo-1,2,3,4-tetrahydro-5-quinolinyl)oxy]-propyl}amino)-1-piperidinyl]phenyl}-3,4-dimethoxybenzenesulfonamide]
0.78	O=S(=O)(Nc1ccc(N2CCC(NC[C@H](O)COc3ccc(O)cc3)CC2)cc1)c1ccc(S(=O)(=O)c2ccc(C(F)(F)F)cn2)s1 [Example 300, N-[4-(4-{[(2S)-2-Hydroxy-3-(4-hydroxyphenoxy)propyl]amino}-1-piperidinyl)phenyl]-5-{[5-(trifluoromethyl)-2-pyridinyl]sulfonyl}-2-thiophenesulfonamide]
0.92	CS(=O)(=O)Nc1cc([C@@H](O)CNC2CCN(c3ccc(NS(=O)(=O)CC(=O)O)cc3)CC2)ccc1O [Example 323, [(4-{4-[((2R)-2-Hydroxy-2-{4-hydroxy-3-[(methylsulfonyl)amino]phenyl}ethyl)amino]-1-piperidinyl}anilino)sulfonyl]acetic acid]
1.26	O=C(NCc1ccc(S(=O)(=O)Nc2ccc(N3CCC(NCC(O)c4cccc(O)c4)CC3)cc2)s1)c1ccccc1 (stereo not shown) [Example 349, N-[(5-{[4-(4-{[2-Hydroxy-2-(3-hydroxyphenyl)ethyl]amino}-1-piperidinyl)-anilino]sulfonyl}-2-thienyl)methyl]benzamide]
